The text below walks through data of patent US20210030867A1, “ADJUVANT COMPOSITION CONTAINING ALUMINUM AND VACCINE COMPOSITION CONTAINING THE SAME” (TERUMO KABUSHIKI KAISHA, priority 2015, published 2021).

The test system of assay [1] is cell-mediated immunity (CTL). Put plainly: Induction of cell-mediated immunity (CTL) in immunized mice, IFNγ ELIspot method on spleen cells. Type of assay: in vivo, C57BL/6N mouse.
Description: Administration was performed under anesthesia. In the case of subcutaneous administration, it is carried out by subcutaneous injection, 100 μL/head, at one position on the back. […] As for the pH-sensitive carrier, a fundamental dose concentration for the amphipathic substance was 100 nmol/head, that for the pH-sensitive compound was 10 to 640 nmol/head, and part thereof was administered in diluted conditions. As the antigen, OVA protein or OVA peptide was used, the dose being 80 μg/head. […] In the case of evaluating cell-mediated immunity, administration was performed once and assay was conducted seven days after the administration.
The mouse was euthanized on the seventh day after the last administration and had its spleen extracted. After addition of 3.0 mL of RPMI medium containing 10% serum, the spleen was treated by the BD Falcon cell strainer, to obtain a suspension of cells. The cells were subjected to hemolysis with RBC lysis buffer, followed by washing with RPMI medium containing 10% serum. The cells were dispersed into RPMI medium containing 10% serum, after which the number of cells was counted, and a dispersion of spleen cells was obtained.
The ELIspot method was carried out by using the Mouse IFNγ ELISPOT Set. One day before cell inoculation, the 96-well ELispot plate was allowed to adsorb the detection antibody attached to the kit, to make the plate. The thus made plate was washed with RPMI medium containing 10% serum, after which 200 μL of 10% serum-containing RPMI medium was added thereto, and the plate was left to stand at 37° C. for two hours for blocking. The plate was washed with 10% serum-containing RPMI medium. In the case where the antigen undergoes restimulation, 100 μL of 10% serum-containing RPMI medium containing 40 μg/mL of OVA peptide was added to the plate. […]
The candidate substances were all used in an amount of 10 μg per mouse, and OVA protein was used as the antigen in an amount of 80 μg per mouse. […] Induction of cell-mediated immunity was evaluated according to the ELispot method described hereinabove. […]
Assay [2] is described as follows: Release test (measurement of leakage; membrane-disruption function). Conditions: for pH 5.0 Leakage (%) Lb5.0 Amphipathic substance alone / pH 7.4 Leakage (%) Lb7.4 Amphipathic substance alone: labelled amphipathic substance alone; for pH 5.0 Leakage (%) La5.0 pH-sensitive compound alone / pH 7.4 Leakage (%) La7.4 pH-sensitive compound alone: labelled pH-sensitive compound alone. As to the method:
The term “membrane-disruption function” means a function to bring about release in the release test. The release test described herein is a test consisting of the steps of adding liposomes (dispersion) embracing an aqueous solution containing a quenching substance and a fluorescent substance and a dispersion of an evaluation sample to a properly pH-adjusted aqueous solution, incubating the resulting aqueous solution at 37° C. for 90 minutes or 30 minutes, and measuring the intensity of fluorescence of the incubated aqueous solution. This method makes it possible to measure the amount of the fluorescent substance which has been released from the liposomes, and to confirm the membrane-disruption function of the pH-sensitive carrier. Note that the release test will be described in more detail in the Examples to be described later.
The leakage was evaluated according to the method described in K. Kono et al., Bioconjugate Chem. 2008 19 1040-1048. The evaluation was performed using EYPC liposomes which contain Pyranine as a fluorescent substance and DPX as a quencher.
3,000 nmol of EYPC dissolved in chloroform was measured and placed in a 10-mL eggplant-shaped flask, and the EYPC was made into thin film by means of a rotary evaporator. To the flask was added 500 μL of a Pyranine solution (Pyranine: 35 mM, DPX: 50 mM, MES: 25 mM, pH 7.4), followed by dispersion using an ultrasonic irradiator (USC-J), and then the resulting dispersion was passed through a polycarbonate film having a pore diameter of 100 nm by use of an extruder, so as to make the particle diameter uniform. The resulting dispersion underwent substitution of the outer aqueous layer using MES Buffer and G100 column, to obtain a dispersion of EYPC liposomes embracing the fluorescent substance. The concentration of the phospholipid was determined using phospholipid C-test Wako, and it was adjusted with MES Buffer so that phospholipid became 1.0 mmol/L.
20 μL of the dispersion of EYPC liposomes adjusted in concentration and 20 μL of an evaluation sample dispersion were added to 2960 μL of pH-adjusted MES Buffer, and the resulting mixture was subjected to incubation at 37° C. for 90 or 30 minutes (Values resulting from incubation for 90 minutes are adopted in Examples, unless otherwise specified.). Fluorescence at Ex461 nm and Em512 nm was observed by use of a spectrophotometer FP-6500 to monitor the leakage.
Note that the leakage was calculated assuming that the value in the case of using the dispersion alone of EYPC liposomes is 0% and the value in the case of adding 30 μL of 10-fold diluted Triton-X100 is 100%. Specifically, the leakage was calculated according to the following formula. Note that in the following formula, L represents the intensity of fluorescence measured, L0 represents the intensity of fluorescence of only the dispersion of EYPC liposomes embracing the fluorescent substance, and L100 represents the intensity of fluorescence in the case of adding Triton-X100.
First, the influence on the effect of promoting the membrane-disruption function was examined. […] After incubating the evaluation samples overnight, part (20 μL) of each evaluation sample was put to a release test. The release test was conducted according to the above-described release test.

The mark [3] stands for this setting: subcutaneous, once, assay after seven days, candidate substance/alum 10 μg, OVA protein 80 μg per mouse, carrier where used 100 nmol DLPC + 160 nmol deoxycholic acid, restimulation with OVA peptide.

For the molecule `Cc1c(C)c2c(c(C)c1O)CCC(C)(CCCC(C)CCCC(C)CCCC(C)C)O2` (racemic) [Tocopherol, DL-α-tocopherol], the “induction of cell-mediated immunity (spot formation, ELIspot)” value (“induction of cell-mediated immunity” for short) in assay [1] (mouse, in vivo, sc) is on record as “did not induce cell-mediated immunity”. Further, in assay [2] (pH 5.0), the “pH 5.0 Leakage (%) Lb5.0 Amphipathic substance alone” value is 1.2%. The “pH 7.4 Leakage (%) Lb7.4 Amphipathic substance alone” value in assay [2] is on record as 1.7%.
On to `CC(=O)Oc1c(C)c(C)c2c(c1C)CCC(C)(CCC[C@H](C)CCC[C@H](C)CCCC(C)C)O2` (mixture of isomers) [tocopherol acetate, DL-α-tocopherol acetate, reference compound], for which the “induction of cell-mediated immunity” value in assay [1] (setting [3]) is recorded as “did not induce cell-mediated immunity”.
On to `C[C@H](CCC(=O)O)[C@H]1CC[C@H]2[C@@H]3[C@H](O)C[C@@H]4C[C@H](O)CC[C@]4(C)[C@H]3CC[C@]12C` [Chenodeoxycholic acid], for which the “pH 5.0 Leakage (%) La5.0 pH-sensitive compound alone” value in assay [2] (pH 5.0) came out at 3.1%. Also, in assay [2], the “pH 7.4 Leakage (%) La7.4 pH-sensitive compound alone” value is 1.1%.
For the molecule `CCCCCCCCCC(=O)OC[C@H](COP(=O)([O-])OCC[N+](C)(C)C)OC(=O)CCCCCCCCC` [DDPC, 1,2-didecanoyl-sn-glycero-3-phosphatidylcholine], the “pH 5.0 Leakage (%) Lb5.0 Amphipathic substance alone” value in assay [2] (pH 5.0) turned out to be 10.1%. Also, the “pH 7.4 Leakage (%) Lb7.4 Amphipathic substance alone” value in assay [2] is reported as 8.4%.
Regarding `CCCCCCCCCCCC(=O)OC[C@H](COP(=O)([O-])OCC[N+](C)(C)C)OC(=O)CCCCCCCCCCC` [DLPC, 1,2-dilauroyl-sn-glycero-3-phosphatidylcholine], the “pH 5.0 Leakage (%) Lb5.0 Amphipathic substance (DLPC) alone” value in assay [2] (pH 5.0, DLPC alone) was 1.9%.
Consider `CCCCCCCCCCCCCCCCCC(=O)OCC(CO)OC(=O)CCCCCCCCCCCCCCCCC` (centres unmarked) [Glycerol distearate, glycerol distearate], for which, in assay [2] (pH 5.0), the “pH 5.0 Leakage (%) Lb5.0 Amphipathic substance alone” value was 4.0%. Further, in assay [2], the “pH 7.4 Leakage (%) Lb7.4 Amphipathic substance alone” value amounted to 0.3%.
As to `CCCCCCCC/C=C\CCCCCCCC(=O)OCC(O)CO` (centres unmarked) [Glycerol monooleate, glycerol monooleate], the “pH 5.0 Leakage (%) Lb5.0 Amphipathic substance alone” value in assay [2] (pH 5.0) came out at 6.0%. Further, the “pH 7.4 Leakage (%) Lb7.4 Amphipathic substance alone” value in assay [2] was determined as 4.1%.
With `CC(CCC(=O)NCC(=O)O)C1CCC2C3CCC4CC(O)CCC4(C)C3CC(O)C12C` (centres unmarked) [Glycodeoxycholic acid], the “pH 5.0 Leakage (%) La5.0 pH-sensitive compound alone” value in assay [2] (pH 5.0) is 5.9%. Further, the “pH 7.4 Leakage (%) La7.4 pH-sensitive compound alone” value in assay [2] was 1.6%.
`CC1(C)[C@@H](O[C@H]2O[C@H](C(=O)O)[C@@H](O)[C@H](O)[C@H]2O[C@@H]2O[C@H](C(=O)O)[C@@H](O)[C@H](O)[C@H]2O)CC[C@]2(C)[C@H]3C(=O)C=C4[C@@H]5C[C@@](C)(C(=O)O)CC[C@]5(C)CC[C@@]4(C)[C@]3(C)CC[C@@H]12` [Glycyrrhizinic acid]: in assay [2] (pH 5.0), the “pH 5.0 Leakage (%) Lb5.0 Amphipathic substance alone” value is reported as 4.0% and the “pH 5.0 Leakage (%) La5.0 pH-sensitive compound alone” value was 3.0%. In assay [2], the “pH 7.4 Leakage (%) Lb7.4 Amphipathic substance alone” value is 0.3% and the “pH 7.4 Leakage (%) La7.4 pH-sensitive compound alone” value came to 0.8%.
Take `C[C@H](CCC(=O)O)[C@H]1CC[C@H]2[C@@H]3C[C@H](O)[C@@H]4C[C@H](O)CC[C@]4(C)[C@H]3CC[C@]12C` [Hyodeoxycholic acid]: in assay [2] (pH 5.0), the “pH 5.0 Leakage (%) La5.0 pH-sensitive compound alone” value is recorded as 2.8%. For the same molecule, the “pH 7.4 Leakage (%) La7.4 pH-sensitive compound alone” value in assay [2] turned out to be 0.6%.
`CCCCCCCCCCCC(=O)OCC(O)COC(=O)CCCCCCCCCCC` [α,α′-dilaurin]: the “pH 5.0 Leakage (%) Lb5.0 Amphipathic substance alone” value in assay [2] (pH 5.0) is recorded as 0.8%. In assay [2], the “pH 7.4 Leakage (%) Lb7.4 Amphipathic substance alone” value is on record as 1.0%.
As to “Polyoxyethylene 10 castor oil [Peg (10) castor oil]”, the “pH 5.0 Leakage (%) Lb5.0 Amphipathic substance alone” value in assay [2] (pH 5.0) was determined as 6.2%. For the same molecule, in assay [2], the “pH 7.4 Leakage (%) Lb7.4 Amphipathic substance alone” value is 3.4%.
In the case of “polyoxyethylene sorbitan monolauric acid ester [Tween 20]”, the “pH 5.0 Leakage (%) Lb5.0 Amphipathic substance alone” value in assay [2] (pH 5.0) was determined as 48.8%. The “pH 7.4 Leakage (%) Lb7.4 Amphipathic substance alone” value in assay [2] came out at 50.4%.
Take “polyoxyethylene sorbitan monooleic acid ester [Tween 80]”: the “pH 5.0 Leakage (%) Lb5.0 Amphipathic substance alone” value in assay [2] (pH 5.0) is 1.6%. Further, in assay [2], the “pH 7.4 Leakage (%) Lb7.4 Amphipathic substance alone” value stood at 0.6%.
Take “polyoxyethylene sorbitan monopalmitic acid ester [Tween 40]”: the “pH 5.0 Leakage (%) Lb5.0 Amphipathic substance alone” value in assay [2] (pH 5.0) is 11.5%. In addition, in assay [2], the “pH 7.4 Leakage (%) Lb7.4 Amphipathic substance alone” value stood at 8.3%.
The matching figures for “polyoxyethylene sorbitan monostearic acid ester [Tween 60]”: 6.7% and 3.8%.
As for sorbitan monooleate [Span80], in assay [2] (pH 5.0), the “pH 5.0 Leakage (%) Lb5.0 Amphipathic substance alone” value worked out at 7.3%. Also, the “pH 7.4 Leakage (%) Lb7.4 Amphipathic substance alone” value in assay [2] was 4.4%.
With sorbitan palimitic acid ester [Span40], the “pH 5.0 Leakage (%) Lb5.0 Amphipathic substance alone” value in assay [2] (pH 5.0) stood at 1.6%. Besides, the “pH 7.4 Leakage (%) Lb7.4 Amphipathic substance alone” value in assay [2] came to 0.6%.
For sorbitan stearic acid ester [Span60], the “pH 5.0 Leakage (%) Lb5.0 Amphipathic substance alone” value in assay [2] (pH 5.0) was 4.3%. Besides, the “pH 7.4 Leakage (%) Lb7.4 Amphipathic substance alone” value in assay [2] was 1.6%.
On to sorbitan trioleic acid ester [Span85], for which the “pH 5.0 Leakage (%) Lb5.0 Amphipathic substance alone” value in assay [2] (pH 5.0) is recorded as 2.0%. In addition, in assay [2], the “pH 7.4 Leakage (%) Lb7.4 Amphipathic substance alone” value was 1.8%.
On to sorbitan tristearic acid ester [Span65], for which, in assay [2] (pH 5.0), the “pH 5.0 Leakage (%) Lb5.0 Amphipathic substance alone” value was determined as 4.2%. For the same molecule, the “pH 7.4 Leakage (%) Lb7.4 Amphipathic substance alone” value in assay [2] came to 1.5%.

B1: antigen alone: OVA protein (Ovalbumin, low endotoxin) administered alone as comparative sample (protein, UniProt P01012 2-386, looked up)
Ovalbumin: GSIGAASMEFCFDVFKELKVHHANENIFYCPIAIMSALAMVYLGAKDSTRTQINKVVRFDKLPGFGDSIEAQCGTSVNVHSSLRDILNQITKPNDVYSFSLASRLYAEERYPILPEYLQCVKELYRGGLEPINFQTAADQARELINSWVESQTNGIIRNVLQPSSVDSQTAMVLVNAIVFKGLWEKAFKDEDTQAMPFRVTEQESKPVQMMYQIGLFRVASMASEKMKILELPFASGTMSMLVLLPDEVSGLEQLESIINFEKLTEWTSSNVMEERKIKVYLPRMKMEEKYNLTSVLMAMGITDVFSSSANLSGISSAESLKISQAVHAAHAEINEAGREVVGSAEAGVDAASVSEEFRADHPFLFCIKHIATNAVLFFGRCVSP
modifications: low endotoxin
Turning to B1, in assay [1] (setting [3]), the “induction of cell-mediated immunity” value was “did not induce cell-mediated immunity”.
